Broadly, the melting point is the temperature, or range, at which the solid turns liquid.

Structures are written as SMILES.

Molecule `COc1ccccc1NC(=O)c1cccc(CO)c1` gave a melting point of 102 °C. Regarding `Cc1ccccc1CC(C(=O)Nc1cnc(Br)cn1)c1ccc(S(C)(=O)=O)cc1` (stereo unspecified), the melting point lay within 194 to 195 °C.

Take `O=c1[nH]c(-c2ccc(CCN3CCN(c4cccc5cc(F)ccc45)CC3)cc2)cs1`: the melting point lay in the range of 228 to 270 °C. The value for `COc1ccc(S(=O)(=O)Nc2ccccc2NC(=O)c2ccccc2[N+](=O)[O-])cc1` was 168 to 170 °C. In turn, `Fc1ccc(-c2nc(CCCSc3ccccc3)[nH]c2-c2ccncc2)cc1` displayed a melting point of 98 to 99 °C.

Molecule `CC1=CC(OC(=O)c2ccc(N(C)C)cc2)C(O)C(C)(C)CC1=O` (stereo unspecified) had a melting point of 162 to 163 °C. Molecule `O=C1C(=Cc2cc(Br)cs2)CCc2cc(OCCn3ccnc3)ccc21` showed a melting point of 164 to 166 °C. The molecule `COC(=O)Cc1cc(NC=O)cc(OC)n1` gave a melting point of 61 to 63 °C. With `Oc1ccc(C(O)CN2CCN(C(c3ccccc3)c3ccccc3)CC2)cc1` (stereo unspecified), the melting point was determined as 154 °C. Molecule `O=C1NC(=O)C2(CCCCC2)N1c1ccc(I)cc1` came in with a melting point of 249 to 251 °C. `NCCCc1ccc(SCCC(c2ccccc2)(c2ccccc2)c2ccccc2)cc1` registered a melting point of 73 to 75 °C. As for `CC12CCC3C(CC=C4CC(C(=O)CBr)CCC43C)C1CCC2=O` (stereo unspecified), the figure is 150 °C. As for `ClC1c2ccccc2C=Cc2ccc(Br)cc21` (stereo unspecified), the figure is 146 °C; as for `O=[N+]([O-])c1ccccc1SNc1nc(OCc2ccc(F)cc2)ncc1F`, 184 °C; as for `O=C(CCc1ccccc1)NC(C(=O)Nc1n[nH]c(=S)s1)c1ccccc1` (stereo unspecified), 196 to 198 °C. As for `CC1C(N(C)C)CCN2c3ccccc3Cc3ccccc3C12` (stereo unspecified), the figure is 174 to 176 °C.

For the molecule `OCc1cn(C(c2ccccc2)(c2ccccc2)c2ccccc2)nn1`, the melting point was 200 to 201 °C.

`COc1ccc(CCC(=O)NCc2ccccc2)cc1` displayed a melting point of 92 to 94 °C. Molecule `COc1nc2ccccc2nc1NC(=S)N1CCN(c2cc(F)cc(F)c2)CC1` displayed a melting point of 280 to 281 °C. `CCOCc1nc(N)c2nc(C)cnc2n1`: the melting point was in the range of 166 to 168 °C. `CC(=O)Oc1c(C(=O)c2ccccc2Cl)c(C)nn1C` gave a melting point of 78 to 79 °C. `CC(C)c1ccc(-c2cnc(-c3cccc(C(=O)O)c3)[nH]2)cc1` gave a melting point of 296 to 298 °C.

For `Cc1cn2cccc(CCl)c2n1`, the melting point is 110 to 112 °C.

`COc1ccc(N2C(=O)N(C(C)CO)c3nc(Nc4ccccc4)ncc3C2C)cc1` (stereo unspecified): the melting point was 165 to 180 °C. `N=C(Nc1cc(Cl)cc(NC(=O)/C=C/c2ccccc2C(F)(F)F)c1)c1cccs1` yielded a melting point of 178 to 179 °C.

In turn, `COc1ccc2sc(SCc3c(F)c(F)c(F)c(F)c3F)nc2c1` gave a melting point of 71 to 75 °C. Molecule `O=C(OCc1ccccc1)N1CCN(c2ccccc2)CC1` came in with a melting point of 49 to 51 °C.

Consider `Cc1cnc(C#N)n1Cc1ccccc1`, for which the melting point lay within 51.5 to 52.5 °C. As for `COc1cccc(S(=O)c2cccc(F)c2C#N)c1` (stereo unspecified), the figure is 103 to 111 °C. The molecule `CCC(O)(CC)c1ccc(-c2cc(-c3c[nH]nc3-c3cccc(C)n3)ccc2F)nc1` gave a melting point of 94 to 95 °C. With `CCN(CC)c1ccc2c(c1)O/C(=C1/Oc3cc(N(CC)CC)ccc3C1=O)C2=O`, the melting point turned out to be 292 °C. For the molecule `COC(=O)NC1=NCC(c2ccc(I)cc2)CN1` (stereo unspecified), the melting point lay within 209 to 210 °C. Molecule `COc1cc2c(cc1OC)C(=Cc1cc(O)ccc1[N+](=O)[O-])OC2=O` showed a melting point of 253 °C. The value for `N=C(N)NCCCCN[N+](=O)[O-]` was 123 to 124 °C. Regarding `Nc1c(-c2ccc(Oc3ccccc3)cc2)nc2ccc(C(F)(F)F)cc2c1C(=O)O`, the melting point lay within 220 to 225 °C. In the case of `Cc1ccc(C(=O)NC(NC(=S)Nc2ccc(F)cc2)C(F)(F)F)cc1` (stereo unspecified), the melting point is 208 to 210 °C.

These data come from a melting point compilation (Tetko et al.; mined from patent text by program, amines drawn as free bases though some values may be those of a salt).
